Patent publication US9815796B2 (Merck Sharp & Dohme Corp., priority 2013, dated 2017)
Read-outs that look alike come from different tables or passages of the source.

How the values were obtained:
[1] = target: Rhesus PDE2A3 (Macaca mulatta, UniProt B3VTJ2); assay: PDE2 fluorescence polarization (IMAP FP) inhibition assay, rhesus enzyme; type: biochemical, rhesus macaque
How it was run: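 Rhesus PDE2A3 came from lysate of transiently transfected AD293 cells, diluted to give 20% substrate conversion. Substrate was 50 nM FAM-cAMP with 1 uM cGMP activator in Tris pH 7.2/MgCl2 buffer, run 60 min at room temperature over 10-point 3-fold dilutions in 1% DMSO. Read-out was IMAP fluorescence polarization (mP) after ≥1 h binding.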

[2] = target: human PDE2A1 (Homo sapiens (Human), UniProt O00408); assay: IMAP FP PDE selectivity panel, human PDE2A1; type: biochemical
human PDE2A1, sequence (O00408 other isoform, or with tags, fused parts or gaps): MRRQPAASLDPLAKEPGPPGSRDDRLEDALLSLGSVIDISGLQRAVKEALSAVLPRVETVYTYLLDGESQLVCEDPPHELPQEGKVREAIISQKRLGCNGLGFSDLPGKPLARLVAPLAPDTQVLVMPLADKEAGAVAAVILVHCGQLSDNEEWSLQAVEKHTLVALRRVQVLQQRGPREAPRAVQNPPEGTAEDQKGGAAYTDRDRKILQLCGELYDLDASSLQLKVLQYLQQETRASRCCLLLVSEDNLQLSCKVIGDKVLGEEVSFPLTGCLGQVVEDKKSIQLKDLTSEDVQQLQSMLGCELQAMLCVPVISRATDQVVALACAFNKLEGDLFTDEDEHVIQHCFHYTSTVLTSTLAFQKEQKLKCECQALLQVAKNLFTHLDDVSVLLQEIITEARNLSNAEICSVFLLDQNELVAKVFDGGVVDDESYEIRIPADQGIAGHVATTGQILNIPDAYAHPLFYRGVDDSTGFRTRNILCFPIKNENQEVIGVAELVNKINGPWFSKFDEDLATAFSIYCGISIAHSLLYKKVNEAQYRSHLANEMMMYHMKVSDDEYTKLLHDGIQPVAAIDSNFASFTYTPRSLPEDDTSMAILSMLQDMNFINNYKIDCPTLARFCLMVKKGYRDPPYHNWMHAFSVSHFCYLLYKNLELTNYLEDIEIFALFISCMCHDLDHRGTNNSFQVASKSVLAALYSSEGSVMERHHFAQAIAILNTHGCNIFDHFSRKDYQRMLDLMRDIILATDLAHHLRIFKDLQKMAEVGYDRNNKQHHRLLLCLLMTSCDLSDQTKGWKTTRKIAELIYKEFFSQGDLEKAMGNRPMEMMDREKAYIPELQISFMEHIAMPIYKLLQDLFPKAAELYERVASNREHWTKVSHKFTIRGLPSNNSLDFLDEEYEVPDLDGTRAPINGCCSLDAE
How it was run: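 GST-tagged human PDE2A1 expressed in insect cells, run at room temperature for 60 min with 50 nM FAM-cAMP containing 1000 nM cGMP, pH 7.2 Tris/MgCl2 buffer. IMAP fluorescence polarization read after binding step.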

[3] = Rhesus PDE2, Lab B, read-out: Rhesus PDE2 Ki (nM) - Lab B
[4] = Human PDE2, Lab B, read-out: Human PDE2 Ki (nM) - Lab B
[5] = Rhesus PDE2, Lab A, read-out: Rhesus PDE2 Ki (nM) - Lab A
[6] = Human PDE2, Lab A, read-out: Human PDE2 Ki (nM) - Lab A

Rhesus PDE2A3, sequence (B3VTJ2 1-941): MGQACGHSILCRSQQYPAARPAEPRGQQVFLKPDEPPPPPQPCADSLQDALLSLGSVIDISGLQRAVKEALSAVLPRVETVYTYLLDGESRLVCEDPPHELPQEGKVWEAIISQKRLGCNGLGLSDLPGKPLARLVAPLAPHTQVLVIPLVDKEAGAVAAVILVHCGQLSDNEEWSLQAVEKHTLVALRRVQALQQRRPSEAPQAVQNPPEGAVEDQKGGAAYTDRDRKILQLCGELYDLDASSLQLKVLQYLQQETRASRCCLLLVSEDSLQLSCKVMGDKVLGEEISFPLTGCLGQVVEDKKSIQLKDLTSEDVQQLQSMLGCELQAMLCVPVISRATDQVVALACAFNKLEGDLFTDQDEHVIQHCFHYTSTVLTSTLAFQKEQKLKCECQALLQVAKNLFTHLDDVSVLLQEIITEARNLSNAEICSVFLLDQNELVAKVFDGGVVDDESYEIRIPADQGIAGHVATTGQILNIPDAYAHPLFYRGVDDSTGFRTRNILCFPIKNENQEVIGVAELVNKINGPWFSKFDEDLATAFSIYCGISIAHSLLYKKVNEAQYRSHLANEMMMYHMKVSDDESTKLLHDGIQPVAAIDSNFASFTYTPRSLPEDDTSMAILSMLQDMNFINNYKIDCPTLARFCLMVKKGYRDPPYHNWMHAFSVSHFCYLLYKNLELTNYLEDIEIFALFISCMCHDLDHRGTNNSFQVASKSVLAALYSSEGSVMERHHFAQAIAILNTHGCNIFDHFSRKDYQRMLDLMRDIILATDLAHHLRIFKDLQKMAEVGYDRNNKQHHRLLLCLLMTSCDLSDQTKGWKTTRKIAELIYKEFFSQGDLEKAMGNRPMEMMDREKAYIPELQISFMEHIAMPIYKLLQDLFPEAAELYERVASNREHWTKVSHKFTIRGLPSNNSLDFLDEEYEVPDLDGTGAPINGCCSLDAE

| SMILES | Ki [1, 3] | Ki [2, 4] | Ki [1, 5] | Ki [2, 6] |
| --- | --- | --- | --- | --- |
| CC(C)[C@@H](NC(=O)c1cc(=O)[nH]c(-c2ccccc2)n1)c1ccc(S(F)(F)(F)(F)F)cc1 [Example 388, N-{(1R)-2-methyl-1-[4-(pentafluoro-λ^6-sulfanyl)phenyl]propyl}-6-oxo-2-phenyl-1,6-dihydropyrimidine-4-carboxamide] | 4.7 nM | 3.9 nM | – | – |
| Cc1nc(C(=O)NC(C(=O)O)c2ccc(C(F)(F)F)cc2)cc(=O)[nH]1 (single isomer, unassigned) [Example 327] | – | – | 4550 nM | 8100 nM |
| C[C@@H](NC(=O)c1cc(=O)[nH]c(C2CC2)n1)c1ccc(C2CC2)cc1 [Example 256, 2-cyclopropyl-N-[(1R)-1-(4-cyclopropylphenyl)ethyl]-6-oxo-1,6-dihydropyrimidine-4-carboxamide] | 21 nM | 20 nM | 13 nM | ~12 nM |
| Cc1nc(C(=O)N[C@@H](c2ccc(C(F)(F)F)cc2F)C(C)(C)C)cc(=O)[nH]1 [Example 617] | 4.2 nM | 4 nM | – | – |
| Cc1nc(C(=O)NC(C(=O)O)c2ccc(C(F)(F)F)cc2)cc(=O)[nH]1 (racemic) [Example 326, 2-(2-Methyl-6-oxo-1,6-dihydropyrimidine-4-carboxamido)-2-(4-(trifluoromethyl)phenyl)acetic acid] | – | – | 70 nM | 67 nM |
| O=C(NC1(c2ccc(OC(F)(F)F)c(F)c2)CC1)c1cc(=O)[nH]c(-c2ccccc2)n1 [Example 157, N-{1-[3-fluoro-4-(trifluoromethoxy)phenyl]cyclopropyl}-6-oxo-2-phenyl-1,6-dihydropyrimidine-4-carboxamide] | – | – | 4.8 nM | 3.1 nM |
| Cc1nc(C(=O)N[C@@H](c2ccc(SC(F)(F)F)cc2)C(C)(C)C)cc(=O)[nH]1 [Example 58, (R)-N-(2,2-dimethyl-1-(4-((trifluoromethyl)thio)phenyl)propyl)-2-methyl-6-oxo-1,6-dihydropyrimidine-4-carboxamide] | 2.5 nM | 1.7 nM | – | – |
| Cc1nc(C(=O)NC(c2ccc(SC(F)(F)F)c(F)c2)C2(C)CC2)cc(=O)[nH]1 (single isomer, unassigned) [Example 702, (R)- or (S)-N-((3-fluoro-4-((trifluoromethyl)thio)phenyl)(1-methylcyclopropyl)methyl)-2-methyl-6-oxo-1,6-dihydropyrimidine-4-carboxamide] | 8.7 nM | 7.2 nM | – | – |
| C[C@@H](NC(=O)c1cc(=O)[nH]c(-c2ncccn2)n1)c1ccc(S(F)(F)(F)(F)F)cc1 [Example 111, 6-oxo-N-{(1R)-1-[4-(pentafluoro-λ^6-sulfanyl)phenyl]ethyl}-1,6-dihydro-2,2′-bipyrimidine-4-carboxamide] | 3.9 nM | 4.7 nM | 3.6 nM | – |
| CC[C@@H](NC(=O)c1cc(=O)[nH]c(Cc2ccc(OC)c(F)c2)n1)c1ccc(OC(F)(F)F)cc1 [Example 529, 2-(3-fluoro-4-methoxybenzyl)-6-oxo-N-{(1R)-1-[4-(trifluoromethoxy)phenyl]propyl}-1,6-dihydropyrimidine-4-carboxamide] | 2.2 nM | 2 nM | – | – |
| CC(C)[C@@H](NC(=O)c1cc(=O)[nH]c(C2CC2)n1)c1ccc(SC(F)(F)F)c(F)c1 [Example 244, 2-cyclopropyl-N-[(1R)-1-{3-fluoro-4-[(trifluoromethyl)sulfanyl]phenyl}-2-methylpropyl]-6-oxo-1,6-dihydropyrimidine-4-carboxamide] | 2.4 nM | 3 nM | 0.99 nM | – |
| COc1ccc2cc(C(C)NC(=O)c3cc(=O)[nH]c(-c4ccccc4)n3)ccc2c1 (stereo not shown) [Example 378, N-[1-(6-methoxynaphthalen-2-yl)ethyl]-6-oxo-2-phenyl-1,6-dihydropyrimidine-4-carboxamide] | 41 nM | 41 nM | 26 nM | – |
| Cc1nc(C(=O)N[C@H](C)c2ccc(OC(F)(F)F)cc2F)cc(=O)[nH]1 [Example 21, N-{(1R)-1-[2-fluoro-4-(trifluoromethoxy)phenyl]ethyl}-2-methyl-6-oxo-1,6-dihydropyrimidine-4-carboxamide] | – | – | 46 nM | 98 nM |
| O=C(NC1(c2ccc(C(F)(F)F)c(F)c2)CC1)c1cc(=O)[nH]c(C2CC2)n1 [Example 202, 2-cyclopropyl-N-{1-[3-fluoro-4-(trifluoromethyl)phenyl]cyclopropyl}-6-oxo-1,6-dihydropyrimidine-4-carboxamide] | – | – | 7.3 nM | 3 nM |
| CC(NC(=O)c1cc(=O)[nH]c(-c2ccccc2)n1)c1ccc(C(F)(F)F)cn1 (stereo not shown) [Example 149, 6-oxo-2-phenyl-N-{1-[5-(trifluoromethyl)pyridin-2-yl]ethyl}-1,6-dihydropyrimidine-4-carboxamide] | – | – | 204 nM | 117 nM |
| COc1ccc(Cc2nc(C(=O)N[C@@H](c3ccc(OC(F)(F)F)cc3)C(C)(C)C)cc(=O)[nH]2)cc1 [Example 467, N-{(1R)-2,2-dimethyl-1-[4-(trifluoromethoxy)phenyl]propyl}-2-(4-methoxybenzyl)-6-oxo-1,6-dihydropyrimidine-4-carboxamide] | 0.62 nM | 0.49 nM | – | – |
| Cc1nc(C(=O)NC(C)c2ccc(C3CC3)cc2)cc(=O)[nH]1 (stereo not shown) [Example 42, N-[1-(4-cyclopropylphenyl)ethyl]-2-methyl-6-oxo-1,6-dihydropyrimidine-4-carboxamide] | – | – | 72 nM | 31 nM |
| CC[C@@H](NC(=O)c1cc(=O)[nH]c(C2CC2)n1)c1ccc(SC(F)(F)F)cc1 [Example 236, 2-cyclopropyl-6-oxo-N-[(1R)-1-{4-[(trifluoromethyl)sulfanyl]phenyl}propyl]-1,6-dihydropyrimidine-4-carboxamide] | – | – | 4.3 nM | 5.5 nM |
| C[C@@H](NC(=O)c1cc(=O)[nH]c(C2CC2)n1)c1ccc(C(F)(F)F)c(F)c1 [Example 234, 2-cyclopropyl-N-{(1R)-1-[3-fluoro-4-(trifluoromethyl)phenyl]ethyl}-6-oxo-1,6-dihydropyrimidine-4-carboxamide] | – | – | 20 nM | 18 nM |
| Cc1nc(C(=O)N[C@@H](c2ccc(OC(F)F)cc2)C2CC2)cc(=O)[nH]1 [Example 610, N-{(R)-cyclopropyl[4-(difluoromethoxy)phenyl]methyl}-2-methyl-6-oxo-1,6-dihydropyrimidine-4-carboxamide] | 68 nM | 70 nM | – | – |
| COCc1nc(C(=O)N[C@H](C)c2ccc(C(F)(F)F)c(F)c2)cc(=O)[nH]1 [Example 125, N-{(1R)-1-[3-fluoro-4-(trifluoromethyl)phenyl]ethyl}-2-(methoxymethyl)-6-oxo-1,6-dihydropyrimidine-4-carboxamide] | – | – | 176 nM | 45 nM |
| Cc1nc(C(=O)N[C@@H](c2ccc(OC(F)F)cc2)C(C)(C)C)cc(=O)[nH]1 [Example 62, (R)-N-(1-(4-(difluoromethoxy)phenyl)-2,2-dimethylpropyl)-2-methyl-6-oxo-1,6-dihydropyrimidine-4-carboxamide] | 9.8 nM | 8.3 nM | – | – |
| COc1ccc([C@@H](C)NC(=O)c2cc(=O)[nH]c(-c3ccccc3)n2)cc1 [Example 347, N-[(1R)-1-(4-methoxyphenyl)ethyl]-6-oxo-2-phenyl-1,6-dihydropyrimidine-4-carboxamide] | 74 nM | 50 nM | 45 nM | – |
| O=C(NC(CO)c1ccc(C(F)(F)F)cc1)c1cc(=O)[nH]c(-c2ccccc2)n1 (stereo not shown) [Example 185, N-{2-hydroxy-1-[4-(trifluoromethyl)phenyl]ethyl}-6-oxo-2-phenyl-1,6-dihydropyrimidine-4-carboxamide] | – | – | 13 nM | 9.7 nM |
| Cc1nc(C(=O)N[C@H](C)c2ccc(CC(F)(F)F)cc2)cc(=O)[nH]1 [Example 45, 2-methyl-6-oxo-N-{(1R)-1-[4-(2,2,2-trifluoroethyl)phenyl]ethyl}-1,6-dihydropyrimidine-4-carboxamide] | – | – | 52 nM | 35 nM |
| C[C@@H](NC(=O)c1cc(=O)[nH]c(-c2ccccc2)n1)c1ccc(SC(F)(F)F)c(F)c1 [Example 398, N-[(1R)-1-{3-fluoro-4-[(trifluoromethyl)sulfanyl]phenyl}eth-yl]-6-oxo-2-phenyl-1,6-dihydropyrimidine-4-carboxamide] | 2.9 nM | 2.3 nM | – | – |
| O=C(NC1(c2ccc(OC(F)(F)F)cc2)CC1)c1cc(=O)[nH]c(-c2ncccn2)n1 [Example 285, 6-oxo-N-{1-[4-(trifluoromethoxy)phenyl]cyclopropyl}-1,6-dihydro-2,2′-bipyrimidine-4-carboxamide] | – | – | 46 nM | 46 nM |
| C[C@@H](NC(=O)c1cc(=O)[nH]c(-c2ncccn2)n1)c1ccc(C(F)(F)F)cc1 [Example 291, 6-oxo-N-{(1R)-1-[4-(trifluoromethyl)phenyl]ethyl}-1,6-dihydro-2,2′-bipyrimidine-4-carboxamide] | – | – | 11 nM | 10 nM |
| CC(C)(NC(=O)c1cc(=O)[nH]c(C2CC2)n1)c1ccc(SC(F)(F)F)cc1 [Example 222, 2-cyclopropyl-N-(1-methyl-1-{4-[(trifluoromethyl)sulfanyl]phenyl}ethyl)-6-oxo-1,6-dihydropyrimidine-4-carboxamide] | – | – | 89 nM | 45 nM |
| CC[C@@H](NC(=O)c1cc(=O)[nH]c(COC)n1)c1ccc(OC(F)(F)F)cc1 [Example 119, 2-(methoxymethyl)-6-oxo-N-{(1R)-1-[4-(trifluoromethoxy)phenyl]propyl}-1,6-dihydropyrimidine-4-carboxamide] | 53 nM | – | 74 nM | 17 nM |
